# PubChem BioAssay (NCI)
#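 96-well plates; 48 h exposure; 5 concentrations. Endpoints by linear interpolation between flanking doses. Not reached: highest tested concentration assigned. GI50 = concentration required for 50% inhibition of growth. TGI is the concentration that stops growth completely.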
# How the values were obtained:
# Test in all cases: growth of human tumour cells (NCI), 48 h
# CAKI-1 renal = test system: CAKI-1 renal
# SK-MEL-28 melanoma = test system: SK-MEL-28 melanoma
# U251 CNS = test system: U251 CNS
# UO-31 renal = test system: UO-31 renal
# MOLT-4 leukemia = test system: MOLT-4 leukemia
# SNB-19 CNS = test system: SNB-19 CNS
# SK-MEL-2 melanoma = test system: SK-MEL-2 melanoma
# NCI-H23 lung = test system: NCI-H23 lung
# ACHN renal = test system: ACHN renal
# K-562 leukemia = test system: K-562 leukemia
# SK-OV-3 ovarian = test system: SK-OV-3 ovarian
SMILES,TGI (CAKI-1 renal) [µM],TGI (SK-MEL-28 melanoma) [µM],TGI (U251 CNS) [µM],TGI (UO-31 renal) [µM],TGI (MOLT-4 leukemia) [µM],TGI (SNB-19 CNS) [µM],TGI (SK-MEL-2 melanoma) [µM],TGI (NCI-H23 lung) [µM],TGI (ACHN renal) [µM],TGI (K-562 leukemia) [µM],TGI (SK-OV-3 ovarian) [µM],GI50 (CAKI-1 renal) [µM],GI50 (SK-OV-3 ovarian) [µM],GI50 (SK-MEL-28 melanoma) [µM],GI50 (U251 CNS) [µM],GI50 (MOLT-4 leukemia) [µM],GI50 (SK-MEL-2 melanoma) [µM],GI50 (NCI-H23 lung) [µM],GI50 (ACHN renal) [µM],GI50 (K-562 leukemia) [µM]
c1ccc(SC(Sc2ccccc2)c2ccc3c(c2)OCO3)cc1,> 100,> 100,> 100,> 100,> 100,> 100,> 100,> 100,> 100,> 100,–,–,–,–,–,–,–,–,–,–
COc1cccc(C2C(C(=O)O)=C(CO)Oc3cc4c(cc32)OCO4)c1 (stereo not drawn),> 100,> 100,> 100,> 100,> 100,> 100,> 100,> 100,> 100,> 100,> 100,–,–,–,–,–,–,–,–,–
O=NNc1cnccn1,> 1250,> 1250,> 1250,> 1250,876,> 1250,> 1250,> 1250,> 1250,> 1250,> 330,–,–,–,–,–,–,–,–,–
O=C(O)c1cncc(C(=O)O)c1,> 100,> 100,> 100,> 100,> 100,> 100,> 100,> 100,> 100,> 100,> 100,–,–,–,–,–,–,–,–,–
O=C(O)/C=C/c1cnc[nH]1,> 500,> 500,> 500,> 500,> 500,> 500,> 500,> 500,–,> 500,> 500,–,–,–,–,–,–,–,–,–
C=C(CN(C)C)C(=O)c1cc(C)ccc1C,11.8,42.5,33.5,19.1,3.86,39.2,37.8,33.4,11.8,8.16,33,–,–,–,–,–,–,–,–,–
O=C(N1CCC(CN=c2cc3n(-c4ccc(Cl)cc4)c4ccccc4nc-3cc2Nc2ccc(Cl)cc2)CC1)N1CC1,3.88,0.981,2.48,–,3.91,–,2.04,3.23,3.21,–,4.64,1.38,2.25,0.519,1.23,0.792,0.632,1.65,1.63,0.286
COc1ccc2c(c1)O[C@H]1c3ccc(O)cc3OC[C@@H]21,> 100,–,> 100,72.6,55.2,> 100,72.7,86.5,81.4,> 100,98.9,–,–,–,–,–,–,–,–,–
CCOC(=O)C1(C(=O)OCC)CSC1,–,> 100,> 100,> 100,> 100,> 100,–,> 100,> 100,> 100,> 100,–,–,–,–,–,–,–,–,–
NC(CCCNc1cccc(O)c1)C(=O)O (stereo not drawn),> 100,> 100,> 100,> 100,> 100,> 100,> 100,–,> 100,> 100,> 100,–,–,–,–,–,–,–,–,–
COc1ccc2c[n+](C)c3c4cc(OC)c(OC)cc4ccc3c2c1,> 100,40.1,15.3,84.6,32.3,12,27.7,13.6,> 92.5,34.9,14.7,–,–,–,–,–,–,–,–,–
COC(=O)C1=COC2OC3/C(=C\c4ccc(O)c(OC)c4)C(=O)OC34C=CC1C24 (stereo not drawn),41.7,33.7,28.5,28.3,> 100,35.3,23.7,32.5,28.3,37.6,31,–,–,–,–,–,–,–,–,–
CCOc1ccc(N=Nc2ccc3oc(=O)c(/C(C)=N\NC(=O)CC(=O)Nc4ccc(Cl)cc4)cc3c2)cc1,> 100,> 100,34,36.9,28.8,> 100,9.32,41.9,97.6,70.6,41.8,–,–,–,–,–,–,–,–,–
